Data as given in article PMC3985417 (Journal of Medicinal Chemistry, 2014).

Assay: in vitro
Details: human, HEK293 cell homogenate

Question: Which fraction unbound at 4 h does the source give for `CN(C)CCCN1c2ccccc2CCc2ccccc21` [Imipramine] here?
Answer: 0.59 ± 0.013
